Laboratory results taken from patent publication US11780839B2, “Compounds for treating Huntington's disease” (PTC THERAPEUTICS, INC., priority 2018, dated 2023).

Test system: Endogenous Huntingtin Protein
Experiment: Endogenous Huntingtin Protein Assay (ELISA-based Meso Scale Discovery electrochemiluminescence)
Format: cell-based
Details: MSD electrochemiluminescence, Table 1
Procedure, shortened: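 Huntingtin was captured overnight at 4 °C on plates coated with 1 μg/mL MW1 (polyQ-expanded) or MAB2166 antibody and BSA-blocked. Detection used a rabbit monoclonal and then a SULFO-TAG goat anti-rabbit antibody (0.25 μg/mL, 1 h each, room temperature). Signal was read by electrochemiluminescence.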

| Compound | IC50 |
| --- | --- |
| CN(c1ncc(-c2ccc(-n3ncc([N+](=O)[O-])n3)cc2O)nn1)C1CC(C)(C)NC(C)(C)C1 [Cpd 99, 2-{3-[methyl(2,2,6,6-tetramethylpiperidin-4-yl)amino]-1,2,4-triazin-6-yl}-5-(4-nitro-2H-1,2,3-triazol-2-yl)phenol] | ≤ 100 nM |
| CNC1CCN(c2ncc(-c3ccc(-c4cc(OC)ncn4)cc3O)nn2)C1 (stereo not shown) [Cpd 268, 5-(6-methoxypyrimidin-4-yl)-2-{3-[(methylamino)pyrrolidin-1-yl]-1,2,4-triazin-6-yl}phenol] | ≤ 100 nM |
| CN(c1ncc(-c2ccc(-c3cn[nH]c3)cc2O)nn1)C1CC(C)(C)NC(C)(C)C1F (stereo not shown) [Cpd 67, 2-{3-[(3-fluoro-2,2,6,6-tetramethylpiperidin-4-yl)(methyl)amino]-1,2,4-triazin-6-yl}-5-(1H-pyrazol-4-yl)phenol] | 100 to 500 nM |
| COc1cc(-c2ccc(-c3cnc(NC4CC(C)(C)NC(C)(C)C4)nn3)c(O)c2)ncn1 [Cpd 254, 5-(6-methoxypyrimidin-4-yl)-2-{3-[(2,2,6,6-tetramethylpiperidin-4-yl)amino]-1,2,4-triazin-6-yl}phenol] | ≤ 100 nM |
| Cn1cc(-c2ccc(-c3cnc(N4CCC(NC5COC5)C4)nn3)c(O)c2)cn1 (stereo not shown) [Cpd 313, 5-(1-methyl-1H-pyrazol-4-yl)-2-(3-{3-[(oxetan-3-yl)amino]pyrrolidin-1-yl}-1,2,4-triazin-6-yl)phenol] | 1000 to 3000 nM |
| Cc1cn(-c2ccc(-c3cnc(N4CCC(NC(C)(C)C)C4)nn3)c(O)c2)cn1 (stereo not drawn) [Cpd 197, 2-{3-[3-(tert-butylamino)pyrrolidin-l-yl]-1,2,4-triazin-6-yl}-5-(4-methyl-1H-imidazol-1-yl)phenol] | 100 to 500 nM |
| CN1CCC2(CC1)CN(c1ncc(-c3ccc(-c4ccc5nccn5n4)cc3O)nn1)C2 [Cpd 256, 5-(imidazo[1,2-b]pyridazin-6-yl)-2-[3-(7-methyl-2,7-diazaspiro[3.5]nonan-2-yl)-1,2,4-triazin-6-yl]phenol] | 100 to 500 nM |
| CN(c1ncc(-c2ccc(-c3cc(F)c4c(c3)ncn4C)cc2O)nn1)C1CC(C)(C)NC(C)(C)C1 [Cpd 300, 5-(7-fluoro-1-methyl-1H-benzimidazol-5-yl)-2-{3-[methyl(2,2,6,6-tetramethylpiperidin-4-yl)amino]-1,2,4-triazin-6-yl}phenol] | 1000 to 3000 nM |
| Cc1ncc(-c2ccc(-c3cnc(N(C)C4CC(C)(C)NC(C)(C)C4)nn3)c(O)c2)o1 [Cpd 74, 5-(2-methyl-1,3-oxazol-5-yl)-2-{3-[methyl(2,2,6,6-tetramethylpiperidin-4-yl)amino]-1,2,4-triazin-6-yl}phenol] | ≤ 100 nM |
| 5-(5-fluoro-1H-pyrazol-4-yl)-2-{6-[methyl(2,2,6,6-tetramethylpiperidin-4-yl)amino]-1,2,4-triazin-3-yl}phenol [Cpd 191] | ≤ 100 nM |
| Oc1cc(-c2cn[nH]c2)ccc1-c1cnc(N2CC[C@H]3NCC[C@@H]32)nn1 [Cpd 332, 2-{3-[(3aR,6aS)-hexahydropyrrolo[3,2-b]pyrrol-1(2H)-yl]-1,2,4-triazin-6-yl}-5-(1H-pyrazol-4-yl)phenol] | ≤ 100 nM |
| CN(c1ncc(-c2ccc(-c3cnc4[nH]ncc4n3)cc2O)nn1)C1CC(C)(C)NC(C)(C)C1 [Cpd 194, 2-{3-[methyl(2,2,6,6-tetramethylpiperidin-4-yl)amino]-1,2,4-triazin-6-yl}-5-(1H-pyrazolo[3,4-b]pyrazin-5-yl)phenol] | ≤ 100 nM |
| CN(c1ncc(-c2ccc(-c3ncc4c(cnn4C)n3)cc2O)nn1)C1CC(C)(C)NC(C)(C)C1 [Cpd 281, 5-(1-methyl-1H-pyrazolo[4,3-d]pyrimidin-5-yl)-2-{3-[methyl(2,2,6,6-tetramethylpiperidin-4-yl)amino]-1,2,4-triazin-6-yl}phenol] | ≤ 100 nM |
| CC(C)(C)NC1CCN(c2ncc(-c3ccc(-c4ccn5nncc5c4)cc3O)nn2)C1 (stereo not drawn) [Cpd 207, 2-{3-[3-(tert-butylamino)pyrrolidin-l-yl]-1,2,4-triazin-6-yl}-5-([1,2,3]triazolo[1,5-a]pyridin-5-yl)phenol] | 1000 to 3000 nM |
| Cc1nsc(-c2ccc(-c3cnc(N(C)C4CC(C)(C)NC(C)(C)C4)nn3)c(O)c2)n1 [Cpd 66, 2-{3-[methyl(2,2,6,6-tetramethylpiperidin-4-yl)amino]-1,2,4-triazin-6-yl}-5-(3-methyl-1,2,4-thiadiazol-5-yl)phenol] | ≤ 100 nM |
| Cc1cnn(-c2ccc(-c3cnc(N(C)C4CC(C)(C)NC(C)(C)C4)nn3)c(O)c2)c1 [Cpd 94, 5-(4-methyl-1H-pyrazol-1-yl)-2-{3-[methyl(2,2,6,6-tetramethylpiperidin-4-yl)amino]-1,2,4-triazin-6-yl}phenol] | 100 to 500 nM |
| Oc1cc(-c2cn[nH]c2)ccc1-c1cnc(N2CCC3(CC2)CNC3)nn1 [Cpd 95, 2-[3-(2,7-diazaspiro[3.5]nonan-7-yl)-1,2,4-triazin-6-yl]-5-(1H-pyrazol-4-yl)phenol] | 100 to 500 nM |
| CC(C)(C)NC1CCN(c2ncc(-c3ccc(-n4ccnc4)cc3O)nn2)C1 (stereo not drawn) [Cpd 187, 2-{3-[3-(tert-butylamino)pyrrolidin-l-yl]-1,2,4-triazin-6-yl}-5-(1H-imidazol-1-yl)phenol] | 100 to 500 nM |
| CN1CCC2(CCN(c3ncc(-c4ccc(-c5cn[nH]c5)cc4O)nn3)CC2)C1 [Cpd 183] | 100 to 500 nM |

| Compound | IC50 |
| --- | --- |
| CC(C)NC1CCN(c2ncc(-c3ccc(-c4cc(=O)n(C)cn4)cc3O)nn2)C1 (stereo not shown) [Cpd 234, 6-[3-hydroxy-4-(3-{3-[(propan-2-yl)amino]pyrrolidin-1-yl}-1,2,4-triazin-6-yl)phenyl]-3-methylpyrimidin-4(3H)-one] | 100 to 500 nM |
| CN1CCO[C@@H]2CN(c3ncc(-c4ccc(-c5cn[nH]c5)cc4O)nn3)C[C@@H]21 [Cpd 311, 2-{3-[(4aS,7aR)-4-methylhexahydropyrrolo[3,4-b][1,4]oxazin-6(2H)-yl]-1,2,4-triazin-6-yl}-5-(1H-pyrazol-4-yl)phenol] | 1000 to 3000 nM |
| C[C@H](CF)N[C@H]1CCN(c2ncc(-c3ccc(-c4cn[nH]c4)cc3O)nn2)C1 [Cpd 329, 2-{3-[(3S)-3-{[(2R)-1-fluoropropan-2-yl]amino}pyrrolidin-l-yl]-1,2,4-triazin-6-yl}-5-(1H-pyrazol-4-yl)phenol] | 100 to 500 nM |
| CN(c1ncc(-c2ccc(-n3cnc(Cl)n3)cc2O)nn1)C1CC(C)(C)NC(C)(C)C1 [Cpd 133, 5-(3-chloro-1H-1,2,4-triazol-1-yl)-2-{3-[methyl(2,2,6,6-tetramethylpiperidin-4-yl)amino]-1,2,4-triazin-6-yl}phenol] | ≤ 100 nM |
| CN(c1ncc(-c2cc(F)c(-c3ccn[nH]3)cc2O)nn1)C1CC(C)(C)NC(C)(C)C1 [Cpd 125, 4-fluoro-2-{3-[methyl(2,2,6,6-tetramethylpiperidin-4-yl)amino]-1,2,4-triazin-6-yl}-5-(1H-pyrazol-5-yl)phenol] | ≤ 100 nM |
| 2-{3-{[(2S)-2-aminopropyl](methyl)amino}-1,2,4-triazin-6-yl)-5-(1H-pyrazol-4-yl)phenol [Cpd 190] | ≤ 100 nM |
| Cc1n[nH]cc1-c1ccc(-c2cnc(N(C)C3CC(C)(C)NC(C)(C)C3)nn2)c(O)c1 [Cpd 6, 5-(3-methyl-1H-pyrazol-4-yl)-2-{3-[methyl(2,2,6,6-tetramethylpiperidin-4-yl)amino]-1,2,4-triazin-6-yl}phenol] | ≤ 100 nM |
| CNC1CCN(c2ncc(-c3ccc(-c4cnc5c(cnn5C)c4)cc3O)nn2)C1 (stereo not shown) [Cpd 271, 2-{3-[3-(methylamino)pyrrolidin-1-yl]-1,2,4-triazin-6-yl}-5-(1-methyl-1H-pyrazolo[3,4-b]pyridin-5-yl)phenol] | 100 to 500 nM |
| CC(=O)c1cnn(-c2ccc(-c3cnc(N(C)C4CC(C)(C)NC(C)(C)C4)nn3)c(O)c2)c1 [Cpd 68, 1-[1-(3-hydroxy-4-{3-[methyl(2,2,6,6-tetramethylpiperidin-4-yl)amino]-1,2,4-triazin-6-yl}phenyl)-1H-pyrazol-4-yl]ethan-l-one] | ≤ 100 nM |
| CC1CN(c2ncc(-c3ccc(-c4ccn(C)n4)cc3O)nn2)CC(C)N1 (stereo not shown) [Cpd 263, 2-[3-(3,5-dimethylpiperazin-1-yl)-1,2,4-triazin-6-yl]-5-(1-methyl-1H-pyrazol-3-yl)phenol] | 100 to 500 nM |
| CN(c1ncc(-c2ccc(-c3ccn(C)n3)cc2O)nn1)C1CC(C)(C)NC(C)(C)C1 [Cpd 76, 5-(1-methyl-1H-pyrazol-3-yl)-2-{3-[methyl(2,2,6,6-tetramethylpiperidin-4-yl)amino]-1,2,4-triazin-6-yl}phenol] | ≤ 100 nM |
| CN1CCC2(CC1)CN(c1ncc(-c3ccc(-n4cnc(F)c4)cc3O)nn1)C2 [Cpd 230, 5-(4-fluoro-1H-imidazol-1-yl)-2-[3-(7-methyl-2,7-diazaspiro[3.5]nonan-2-yl)-1,2,4-triazin-6-yl]phenol] | > 500 nM |
| Oc1cc(-c2cn[nH]c2)ccc1-c1cnc(N2CCC(CNC3CC3)C2)nn1 (stereo not shown) [Cpd 392, 2-(3-{3-[(cyclopropylamino)methyl]pyrrolidin-1-yl}-1,2,4-triazin-6-yl)-5-(1H-pyrazol-4-yl)phenol] | ≤ 100 nM |
| CN(c1ncc(-c2ccc(-c3ncc4[nH]ncc4n3)cc2O)nn1)C1CC(C)(C)NC(C)(C)C1 [Cpd 195, 2-{3-[methyl(2,2,6,6-tetramethylpiperidin-4-yl)amino]-1,2,4-triazin-6-yl}-5-(1H-pyrazolo[4,3-d]pyrimidin-5-yl)phenol] | ≤ 100 nM |
| CN(c1ncc(-c2ccc(-c3ccc4nnn(C)c4n3)cc2O)nn1)C1CC(C)(C)NC(C)(C)C1 [Cpd 173] | ≤ 100 nM |
| [2H]C([2H])([2H])n1cc(-c2ccc(-c3cnc(N(C)C4CC(C)(C)NC(C)(C)C4)nn3)c(O)c2)cn1 [Cpd 14, 5-[1-(^2H3)methyl-1H-pyrazol-4-yl]-2-{3-[methyl(2,2,6,6-tetramethylpiperidin-4-yl)amino]-1,2,4-triazin-6-yl}phenol] | ≤ 100 nM |
| CC(C)(C)N[C@H]1CCN(c2ncc(-c3ccc(-c4cn[nH]c4)cc3O)nn2)C1 [Cpd 355, 2-{3-[(3S)-3-(tert-butylamino)pyrrolidin-l-yl]-1,2,4-triazin-6-yl}-5-(1H-pyrazol-4-yl)phenol] | ≤ 100 nM |
| CN(c1cnc(-c2ccc(-c3ccncn3)cc2O)nn1)C1CC(C)(C)NC(C)(C)C1 [Cpd 411, 2-{6-[methyl(2,2,6,6-tetramethylpiperidin-4-yl)amino]-1,2,4-triazin-3-yl}-5-(pyrimidin-4-yl)phenol] | ≤ 100 nM |
